The subject of the experiment is BDF1 mice, P388 leukemia ip, median survival T/C. Nature of the experiment: NCI In Vivo Anticancer Drug Screen. Data for tumor model P388 Leukemia (intraperitoneal) in B6D2F1 (BDF1) mice. Particulars: endpoint: median survival time, higher = longer survival. In short, it runs like this: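 Vehicle-dosed animals serve as the reference; survival of compound-dosed, tumour-implanted mice is divided by it.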

The mark [1] stands for this setting: dose: 12.5 mg/kg/injection, schedule: Q01DX009 (ip), vehicle: Klucel (hydroxypropylcellulose) (HPC).
[2] abbreviates: dose: 100.0 mg/kg/injection, schedule: Q01DX009 (ip), vehicle: Klucel (hydroxypropylcellulose) (HPC).
Setting [3] is: dose: 100.0 mg/kg/injection, schedule: Q04DX003 (ip), vehicle: Klucel (hydroxypropylcellulose) (HPC).
[4] abbreviates: dose: 25.0 mg/kg/injection, schedule: Q01DX009 (ip), vehicle: saline with Tween-80.
[5] abbreviates: dose: 50.0 mg/kg/injection, schedule: Q01DX009 (ip), vehicle: saline with Tween-80.
Where [6] appears, read: dose: 100.0 mg/kg/injection, schedule: Q01DX009 (ip), vehicle: saline with Tween-80.
Setting [7] is: dose: 200.0 mg/kg/injection, schedule: Q01DX009 (ip), vehicle: saline with Tween-80.
Setting [8] is: dose: 100.0 mg/kg/injection, schedule: Q01DX001 (ip), vehicle: saline with Tween-80.
The mark [9] stands for this setting: dose: 200.0 mg/kg/injection, schedule: Q01DX001 (ip), vehicle: saline with Tween-80.
The mark [10] stands for this setting: dose: 6.25 mg/kg/injection, schedule: Q01DX009 (ip), vehicle: saline.
The mark [11] stands for this setting: dose: 12.5 mg/kg/injection, schedule: Q01DX009 (ip), vehicle: saline.
Where [12] appears, read: dose: 25.0 mg/kg/injection, schedule: Q01DX009 (ip), vehicle: Klucel (hydroxypropylcellulose) (HPC).
Setting [13] is: dose: 100.0 mg/kg/injection, schedule: Q04DX003 (ip), vehicle: saline with Tween-80.
[14] abbreviates: dose: 200.0 mg/kg/injection, schedule: Q04DX003 (ip), vehicle: saline with Tween-80.
The mark [15] stands for this setting: dose: 400.0 mg/kg/injection, schedule: Q04DX003 (ip), vehicle: saline with Tween-80.

SMILES strings stand for the structures. Where “and” joins values, the source holds several entries; their conditions need not be identical. Identical values can stand only once. Inconclusive results and toxic doses are left out.

With `CC(=O)Nc1ccc2c(c1)Cc1cc(NC=O)ccc1-2`, the T/C reads like this: (dose: 0.75 mg/kg/injection, schedule: Q01DX009 (ip), vehicle: Klucel (hydroxypropylcellulose) (HPC)) 89 % of control; (dose: 3.0 mg/kg/injection, schedule: Q01DX009 (ip), vehicle: Klucel (hydroxypropylcellulose) (HPC)) 92 % of control; under setting [1], 96 % of control; under setting [2], 91 % of control; under setting [3], 87 % of control.

`COc1cccc(C(O)c2ccncc2)c1OC` (configuration not stated): the T/C by setting is: (dose: 25.0 mg/kg/injection, schedule: Q04DX003 (ip), vehicle: water) 113 % of control; (dose: 50.0 mg/kg/injection, schedule: Q04DX003 (ip), vehicle: water) 108 % of control; (dose: 100.0 mg/kg/injection, schedule: Q04DX003 (ip), vehicle: water) 103 % of control; (dose: 200.0 mg/kg/injection, schedule: Q04DX003 (ip), vehicle: water) 90 % of control; (dose: 400.0 mg/kg/injection, schedule: Q04DX003 (ip), vehicle: water) 97 % of control.

Take `COc1cccc2c1C(=O)c1c(O)c3c(c(O)c1C2=O)CC(O)(/C(C)=N/NC(=O)CC(=O)N/N=C(\C)C1(O)Cc2c(O)c4c(c(O)c2C(OC2CC(N)C(O)C(C)O2)C1)C(=O)c1c(OC)cccc1C4=O)CC3OC1CC(N)C(O)C(C)O1` (configuration not stated): the T/C is 157 % of control (dose: 3.13 mg/kg/injection, schedule: Q01DX009 (ip), vehicle: water) and 186 % of control (dose: 6.25 mg/kg/injection, schedule: Q01DX009 (ip), vehicle: water).

Regarding `Cc1c[n+]([O-])cc(C)c1[N+](=O)[O-]`, the T/C is 100 % of control under setting [4]; 90 % of control under setting [5]; 90 % of control under setting [6]; 100 % of control under setting [7]; 100 % of control (dose: 400.0 mg/kg/injection, schedule: Q01DX009 (ip), vehicle: saline with Tween-80).

For the molecule `O=C(O)c1onc2ccccc12`, the T/C runs as follows: under setting [8], 113 % of control; under setting [9], 90 % of control.

`N=C(N)SCc1ccc(CSC(=N)N)s1`: the T/C under setting [10] was 97 % of control; the T/C under setting [11] was 106 % of control; the T/C (dose: 25.0 mg/kg/injection, schedule: Q01DX009 (ip), vehicle: saline) was 106 % of control.

As to `CC(C(Nc1ccc(C(=O)O)cc1)C(F)(F)C(F)(F)C(F)(F)F)[N+](=O)[O-]` (configuration not stated), the T/C under setting [8] is 95 % of control; the T/C under setting [9] is 104 % of control; the T/C (dose: 400.0 mg/kg/injection, schedule: Q01DX001 (ip), vehicle: saline with Tween-80) is 100 % of control.

With `CN[C@@H]1[C@H](O)[C@H](NC)[C@H]2O[C@@]3(O)C(=O)C[C@@H](C)O[C@H]3O[C@@H]2[C@H]1O`, the T/C reads like this: under setting [10], 95 % of control; under setting [11], 90 % of control; (dose: 100.0 mg/kg/injection, schedule: Q01DX009 (ip), vehicle: saline) 99 % of control; (dose: 200.0 mg/kg/injection, schedule: Q01DX009 (ip), vehicle: saline) 117 % of control; (dose: 400.0 mg/kg/injection, schedule: Q01DX009 (ip), vehicle: saline) 115 % of control.

Turning to `CC(=O)c1cc(CN(CCCl)CCCl)c(O)c(CN(CCCl)CCCl)c1O`, the T/C is, setting by setting: (dose: 0.05 mg/kg/injection, schedule: Q01DX009 (ip), vehicle: Klucel (hydroxypropylcellulose) (HPC)) 100 % of control; (dose: 0.1 mg/kg/injection, schedule: Q01DX009 (ip), vehicle: Klucel (hydroxypropylcellulose) (HPC)) 120 % of control; (dose: 0.2 mg/kg/injection, schedule: Q01DX009 (ip), vehicle: Klucel (hydroxypropylcellulose) (HPC)) 110 % of control; (dose: 0.4 mg/kg/injection, schedule: Q01DX009 (ip), vehicle: Klucel (hydroxypropylcellulose) (HPC)) 120 % of control; (dose: 5.5 mg/kg/injection, schedule: Q01DX009 (ip), vehicle: Klucel (hydroxypropylcellulose) (HPC)) 162 % of control; (dose: 6.25 mg/kg/injection, schedule: Q01DX009 (ip), vehicle: Klucel (hydroxypropylcellulose) (HPC)) 118 % of control. Moreover, the T/C runs as follows: (dose: 8.0 mg/kg/injection, schedule: Q01DX009 (ip), vehicle: Klucel (hydroxypropylcellulose) (HPC)) 166 % of control; (dose: 8.3 mg/kg/injection, schedule: Q01DX009 (ip), vehicle: Klucel (hydroxypropylcellulose) (HPC)) 166 % of control; (dose: 12.0 mg/kg/injection, schedule: Q01DX009 (ip), vehicle: Klucel (hydroxypropylcellulose) (HPC)) 183 % of control; under setting [1], 183 % of control and 190 % of control; (dose: 18.0 mg/kg/injection, schedule: Q01DX009 (ip), vehicle: Klucel (hydroxypropylcellulose) (HPC)) 250 % of control; under setting [12], 154 % of control.

As for `Cc1n[nH]c(C)c1Br`, the T/C runs as follows: (dose: 75.0 mg/kg/injection, schedule: Q01DX009 (ip), vehicle: saline with Tween-80) 95 % of control; (dose: 150.0 mg/kg/injection, schedule: Q01DX009 (ip), vehicle: saline with Tween-80) 98 % of control; (dose: 300.0 mg/kg/injection, schedule: Q01DX009 (ip), vehicle: saline with Tween-80) 95 % of control.

Turning to `CC(C)=NN1C(=O)c2ccccc2C1=O`, the T/C by setting is: under setting [4], 101 % of control; under setting [5], 101 % of control; under setting [6], 100 % of control.

In the case of `O=P1(N(CCCl)CCCl)NC(OOC2CCOP(=O)(N(CCCl)CCCl)N2)CCO1` (configuration not stated), the T/C is, setting by setting: (dose: 50.0 mg/kg/injection, schedule: Q01DX001 (ip), vehicle: Klucel (hydroxypropylcellulose) (HPC)) 200 % of control; (dose: 100.0 mg/kg/injection, schedule: Q01DX001 (ip), vehicle: Klucel (hydroxypropylcellulose) (HPC)) 236 % of control; (dose: 200.0 mg/kg/injection, schedule: Q01DX001 (ip), vehicle: Klucel (hydroxypropylcellulose) (HPC)) 272 % of control; (dose: 400.0 mg/kg/injection, schedule: Q01DX001 (ip), vehicle: Klucel (hydroxypropylcellulose) (HPC)) 273 % of control.

Regarding `CCOC(=O)C(C)(C)CN(CC(C)(C)C(=O)OCC)c1ccccc1`, the T/C runs as follows: under setting [13], 115 % of control; under setting [14], 115 % of control; under setting [15], 120 % of control.

`CCOC(=O)c1c(NC(C)=O)sc2c1CCCC2`: the T/C is, setting by setting: under setting [5], 104 % of control; (dose: 50.0 mg/kg/injection, schedule: Q04DX003 (ip), vehicle: saline with Tween-80) 90 % of control; under setting [6], 100 % of control; under setting [13], 104 % of control; under setting [7], 100 % of control; under setting [14], 100 % of control.

As for `CN(C)c1ccc(C(O)(Cc2cccnc2)c2ccc(N(C)C)cc2)cc1`, the T/C reads like this: under setting [5], 113 % of control; under setting [6], 100 % of control; under setting [7], 96 % of control.

With `CP1(=O)CC(=O)CCC(=O)C1`, the T/C (dose: 50.0 mg/kg/injection, schedule: Q04DX002 (ip), vehicle: saline) is 104 % of control; the T/C (dose: 100.0 mg/kg/injection, schedule: Q04DX002 (ip), vehicle: saline) is 105 % of control; the T/C (dose: 200.0 mg/kg/injection, schedule: Q04DX002 (ip), vehicle: saline) was 106 % of control.

As for `CC(=O)Nc1c([N+](=O)[O-])ccc(Cl)c1Cl`, the T/C is 104 % of control under setting [12]; 87 % of control (dose: 50.0 mg/kg/injection, schedule: Q01DX009 (ip), vehicle: Klucel (hydroxypropylcellulose) (HPC)); 100 % of control under setting [2]; 100 % of control under setting [3].

Consider `COc1ccc2c(c1)CCN(C1=C(C)C(=O)CC1)C2CC(=O)O` (configuration not stated), for which the T/C (dose: 100.0 mg/kg/injection, schedule: Q01DX001 (ip), vehicle: saline sonified) was 100 % of control; the T/C (dose: 200.0 mg/kg/injection, schedule: Q01DX001 (ip), vehicle: saline sonified) was 100 % of control; the T/C (dose: 400.0 mg/kg/injection, schedule: Q01DX001 (ip), vehicle: saline sonified) was 100 % of control.

As to `CCOC(CCC#N)c1ccccc1` (configuration not stated), the T/C is, setting by setting: (dose: 266.0 mg/kg/injection, schedule: Q04DX003 (ip), vehicle: saline with Tween-80) 114 % of control; under setting [15], 114 % of control; (dose: 600.0 mg/kg/injection, schedule: Q04DX003 (ip), vehicle: saline with Tween-80) 119 % of control.

These data come from PubChem BioAssay AID328 (DTP/NCI, 2004).
